pIC50: −log10 of the molar value.
What was measured:
[1] = tested on: dog platelets; assay: Binding assay: inhibition of 3H-PAF binding to dog platelets; conditions: 10 minutes at room temperature
Procedure: The binding assay was done in 400 μl polyethylene microcentrifuge tubes (Beckman) containing 50 μl of an oil mixture of 2 parts Siliconol AR200 (Serva): 1 part Silicone Fluid (Arthur H. Thomas). Buffer, standards, or analogs (150 μl total volume) were added to the tubes. Radiolabelled ^3 H-PAF (50 μl) was then added to the tubes. The reaction was started by the addition of 50 μl of dog platelets (2×10^7 platelets). The tubes were capped, inverted several times to mix, and incubated for 10 minutes at room temperature. The platelets were separated from the incubation mixture by centrifuging 1 minute in a Beckman Microfuge B centrifuge. The tip of the microfuge tube was cut off, and the platelets were washed out of the tip with 200 μl of 50% methanol (Burdick and Jackson). Aquasol (NEN, 10 ml) was added and the radioactivity in the samples was determined using an LS 8100 Beckman liquid scintillation counter linked to a Techtran tape recorder. Data was processed through an in-house computer system. Alternatively, radioactivity was determined using a Searle Mark III liquid scintillation counter linked to a Iso-Data microprocessor.
(b) Preparation of Platelets
Blood was collected from anesthesized or unanesthesized dogs into 50 ml plastic centrifuge tubes containing 3.8% sodium citrate as the anticoagulant (1 volume of citrate/9 volumes of blood). The red cells were removed by centrifugation for 15 minutes at 600 rpm (100-125 g) at room temperature. An aliquot of the supernatant platelet rich plasma (PRP) was saved for cell counting and the remainder was acidified by pH 6.5 with 0.15M citric acid. The platelet pellet was obtained after a 10 minute centrifugation at 2000 rpm (1000 g) at room temperature. Washed platelets were prepared by resuspending the platelet pellet once with PBS containing 1 mM EDTA, centrifuging as noted, and then resuspending the platelets in 0.1% BSA-PBS. An aliquot of the washed platelets was counted. Platelets used for binding assays were diluted to 2×10^7 platelets/assay tube (4×10^8 platelets/ml). Platelet counting was done using a Royco Cell-Crit 921.

[2] = tested on: PAF-induced Bronchoconstriction; assay: PAF Induced Bronchoconstriction Assay; assay type: in vivo; conditions: guinea pig, ± standard error of the mean; for Percent Inhib. of PAF-induced Bronchoconstriction, 1 mg/Kg i.v.: 1 minute pretreatment, PAF 1.0 μg/kg i.v.; for Percent Inhib. of PAF-induced Bronchoconstriction, 50 mg/Kg p.o.: 2-hour pretreatment, PAF i.v.
Procedure: PAF Induced Bronchoconstriction Assay
Male animals (Hartlet Strain, 400-500 g) were anesthetized with urethane (2 g/kg, i.p.). Each animals' trachea was cannulated and the guinea pigs were respirated using a Harvard small animal rodent respirator (3.0 cc stroke volume, 40 breaths per min.). Tracheal pressure was recorded from a cannula inserted in the trachea and connected to a Statham Pressure Transducer.
The jugular vein was cannulated for administering compounds. Spontaneous breathing was arrested with succinylcholine (1.2 mg/kg, i.v.) administered 2 minutes prior to intravenous injection of platelet activating factor (PAF).
For, the intravenous testing, the guinea pig is given a 5-minute pretreatment with propranolol at a dose of 0.1 mg/kg intravenously. The test compound is administered with a 1 minute pretreatment prior to intravenous challenge with PAF. The animal is then challenged with a 1.0 μg/kg intravenous dose of PAF and the change is tracheal pressure is measured.
For the oral testing, the procedure includes a 2-hour pretreatment period with the test compound administered through an oral gavage tube. Propranolol or succinylcholine and PAF are administered intravenously, and the change in tracheal pressure measured.
The change is tracheal pressure is determined by subtracting the steady state baseline achieved after administration of succinylcholine from the peak bronchoconstriction seen after challenge with PAF. The mean is calculated for each test compound and compared to the mean of the control animals to give the percent inhibition of bronchoconstriction. The standard error is calculated as the standard error of the mean.

[3] = tested on: PAF-induced Platelet Count Decrease; assay: PAF induced platelet count decrease; assay type: in vivo, guinea pig; conditions: for Percent Inhib. of PAF-induced Platelet Count Decrease, 3 mg/Kg i.v.: guinea pig, 15 minutes after drug injection, PAF 75 ng/kg i.v.
Procedure: PAF INDUCED PLATELET COUNT DECREASE
Male Hartley guinea pigs weighing between 500 and 900 grams were fed standard guinea pig chow and tap water ad libitum. PAF was solubilized in ethanol and stored as a 2 mM stock solution at -70° C. The stock solution of PAF was diluted to 1 pM in Tris buffer pH 7.4 and 0.1% BSA for all experiments.
(a) Intravenous Procedure
Guinea pigs were anesthetized with urethane (1.6 g/kg, i.p.). A catheter (PE50) was introduced into the right carotid artery for withdrawing blood. A second catheter PE10) was introduced into the jugular vein for injecting drugs and for administering the PAF challenge (75 ng/kg, i.v.). A control blood sample was obtained and platelets were counted in a whole blood platelet analyzer. PAF was then given and blood samples were taken 15, 30, and 60 seconds after the challenge for platelet counts. Fifteen minutes later, selected concentrations of the test compound were solubilized in DMSO and injected intravenously into a group of 4-6 animals. Only one concentration of antagonist was used in each animal group. Fifteen minutes after drug injection, blood samples were taken before and 15, 30, and 60 sec after the PAF challenge, and analyzed for platelet number.
Animals were anesthetized with sodium pentobarbital (35 mg/kg, i.p.) and the caritoid artery and jugular vein were cannulated as described above. The cannulae were exteriorized at the base of the neck and the animals were allowed to recover. At least 18 hours after surgery, conscious unrestrained guinea pigs were used in the experiment. The animals were challenged two time with PAF (120 ng/kg, i.v.); the first to establish a consistent response to PAF and the second to serve as a control for the PAF challenge. Blood samples were taken before and 15, 30, and 45 seconds after PAF challenge and platelets were counted. Thirty minutes after the control PAF challenge, the animal were orally dosed with either gum acacia or the test compound. Animals were then challenged with PAF at 1, 3, 5, and 24 hours after the administration of the drug.
DATA ANALYSIS AND STATISTICS
The % change, i.e., the difference in platelet number before and after PAF challenge was calculated by: [formula]
Statistical significance (p 0.05) of the difference between the mean PAF control and mean drug treated activity was determined with paried Student's t-test.

Row | SMILES | pIC50 [1] | Percent Inhib. of PAF-induced Bronchoconstriction, 1 mg/Kg i.v. [2] | Percent Inhib. of PAF-induced Platelet Count Decrease, 3 mg/Kg i.v. [3] | Percent Inhib. of PAF-induced Bronchoconstriction, 50 mg/Kg p.o. [2] | Percent Inhib. of PAF-induced Platelet Count Decrease, 30 mg/Kg p.o. ([3]; conscious guinea pig, 30 mg/Kg p.o., PAF 120 ng/kg i.v.)
1 | O=C(/C=C/C1CC1(c1cccc(F)c1)c1cccc(F)c1)NCCCCc1cccnc1 (racemic) [[R,S-(E)]-3-[2,2-bis(3-Fluorophenyl)cyclopropyl]-N-[4-(3-pyridinyl)butyl]-2-propenamide] | 7.28 | 96 ± 2% | 30% |  | 
2 | O=C(/C=C\C1CC1(c1cccc(F)c1)c1cccc(F)c1)NCCCCc1cccnc1 (racemic) [[R,S-(Z)]-3-[2,2-bis(3-Fluorophenyl)cyclopropyl]-N-[4-(3-pyridinyl)butyl]-2-propenamide] | 7.00 |  | 22% | 52 ± 28% | 
3 | COc1cccc(C2(c3cccc(OC)c3)C[C@@H]2/C=C/C(=O)NCCCCc2cccnc2)c1 [[R-(E)]-3-[2,2-bis(3-Methoxyphenyl)cyclopropyl]-N-[4-(3-pyridinyl)butyl]-2-propenamide] | 6.52 | 8 ± 5% |  | 8 ± 2% | 

Now from value to compound, other results behind:

Row | pIC50 [1] | SMILES | Percent Inhib. of PAF-induced Bronchoconstriction, 1 mg/Kg i.v. [2] | Percent Inhib. of PAF-induced Platelet Count Decrease, 3 mg/Kg i.v. [3] | Percent Inhib. of PAF-induced Bronchoconstriction, 50 mg/Kg p.o. [2] | Percent Inhib. of PAF-induced Platelet Count Decrease, 30 mg/Kg p.o. ([3]; conscious guinea pig, 30 mg/Kg p.o., PAF 120 ng/kg i.v.)
4 | 7.62 | O=C(/C=C/[C@@H]1CC1(c1cccc(F)c1)c1cccc(F)c1)NCCCCc1cccnc1 [[S-(E)]-3-[2,2-bis(3-Fluorophenyl)cyclopropyl]-N-[4-(3-pyridinyl)butyl]-2-propenamide] | 90 ± 4% |  | 95 ± 79% | 66%
5 | 7.46 | O=C(/C=C/[C@@H]1CC1(c1ccccc1)c1ccccc1)NCCCCc1cccnc1 [[S-(E)]-3-(2,2-Diphenylcyclopropyl)-N-[4-(3-pyridinyl)butyl]-2-propenamide] | 86 ± 7% | 44% |  | 

Reference: patent publication US4927826A, “Cycloproylpropenamides useful as platelet activing factor (PAF) antagonists” (Hoffman-La Roche Inc., priority 1988, dated 1990)
